Test results published in patent US4661516A, “Diaminocyclohexane platinum complexes” (Research Corporation, priority 1984, dated 1987).
Several values for one entry are separate records, joined by “and”; a condition that tells them apart may be missing. Identical values can stand only once. Like-named read-outs stand apart in the source and are kept apart here.

Legend:
[1] = tested on: Wild type L1210 leukemic cells; assay: In vitro cytotoxicity, wild type L1210 leukemic cells (L1210/0); assay type: cell-based; conditions: for ID50: L1210, 72 hours incubation; for ID50 L1210/0: 4320 min
Procedure: Four ml of cell suspension (10^5 cells/ml) are added to culture tubes and the appropriate concentration (0.01, 0.1, 1 or 10 μg/ml final concentration) of drug added to the culture tubes. After 72 hours of incubation, the cell concentration of control and experimental cultures are determined with the aid of a Coulter Counter® Model ZBf and the percent inhibition calculated. […]

[2] = tested on: L1210 leukemia cells (L1210/PDD); assay: In vitro cytotoxicity / cross-resistance, L1210/PDD (L1210/DDP) cells resistant to cisdiamminedichloroplatinum(II); assay type: cell-based; conditions: for ID50 L1210/DDP: Tables VII and VIII, 5760 min; for ID50 L1210/PDD: 96 hours
Procedure: Four ml of cell suspension were added to culture tubes and the appropriate concentration (0.01, 0.1, 1 or 10 μg/ml final drug concentration) was added. After 96 hours the cell concentration of control and experimental cultures were calculated with the aid of a Coulter Counter® Model ZBf and the percent inhibition calculated.

[3] = tested on: L1210 cells; assay: In vivo anti-tumor activity, L1210, single i.p. injection; design: species or system BDF1 mice; conditions: for Maximal Effective Dose: single i.p. injection
Procedure: About 24 hours after inoculation of the cells, the mice were injected intraperitoneally with varying dosages of complexes of the present invention. […] Long term survival signifies that animals were alive 60 days after inoculation with L1210 cells.

[4] = tested on: L1210/0 leukemia cells; assay: In vivo anti-tumor activity, L1210 (L1210/0), multiple i.p. doses; design: species or system BDF1 mice; conditions: for LTS: survivors/treated 50 days after treatment; for Maximal Effective Dose: i.p. on days 1, 5 and 9
Procedure: BDF1 mice were inoculated intraperitoneally with 10^6 L1210 cells. About 24 hours after inoculation of the cells, the mice were injected intraperitoneally with varying dosages of complexes of the present invention. Six mice were used for each dosage level in each experiment with an equal number of control mice inoculated with 10^6 L1210 cells and left untreated with a given complex. The results [%T/C=(survival time of treated animals/survival time of control animals)×100] are set forth below. Long term survival signifies that animals were alive 60 days after inoculation with L1210 cells.
The procedure of Example 16 was repeated except that the treated animals were injected with multiple doses of the complex as indicated below:
(§1) The anti-tumor activity of compound number 3 was evaluated against cells sensitive to (L1210/0) and resistant to (L1210/PDD) the standard platinum complex cis-diamminedichloroplatinum(II).
The following complexes were tested in vivo oncolytic activity following 3 i.p. injections (days 1, 5, 9) according to the protocol described in Examples 16 and 17.
BDF1 mice were innoculated intraperitoreally with 10^6 L1210 leukemia cells and treatment was begun on the next day (day 1). Two treatment schedules, i.e. single i.p. injection of the drug and i.p. injections on days 1, 5 and 9 according to the protocol described in Examples 16 and 17 were used.

[5] = tested on: B16 cells; assay: Melanotic melanoma test, i.p. inoculated B16 melanoma; assay type: in vivo, BDF1 mice; conditions: for Maximal Effective Dose: B16, i.p. days 1, 5 and 9; for % T/C / Long Term Survivors: B16, i.p. days 1, 5 and 9, at maximal effective dose; for Long Term Survivors: 60 days
Procedure: The animals used were BDF1 mice, all of the same sex, weighing a minimum of 18 g. and all within a 4 g. weight range. There were 6 animals per test group. […] The test compounds were administered intraperitoneally on days 1, 5 and 9 at various doses. The animals were weighed and survivors were recorded on a regular basis for 60 days. The median survival time and the ratio of survival time for treated (T)/control (C) animals were calculated. […] The criterion for efficacy is T/C×100≥125%.

[6] = Acute lethality, single intraperitoneal injection (Table XIII); assay type: in vivo
[7] = BUN (RUN [sic]) with the acute lethality data (Table XIII); assay type: in vivo; conditions: mean + 1 S.D.
[8] = tested on: Male albino mice; assay: Acute toxicity, single intraperitoneal injection (Example 19); assay type: in vivo; conditions: single i.p.; for Calculated LD10 / Calculated LD50 / Calculated LD90: 14 days
Procedure: Fourteen days after treatment all surviving mice were sacrified and the LD10, LD50 and LD90 were calculated.

[9] = tested on: L1210/PDD; assay type: in vivo, BDF1 mice; conditions: days 1,5,9
Procedure: as §1

[10] = L1210/0, protocol of Example 14, Tables VII and VIII
[11] = Table IX, single i.p., at maximal effective dose
[12] = Tables X and XI, days 1, 5 and 9, at maximal effective dose, alive 60 days after tumor inoculation
[13] = Tables X and XI, i.p. on days 1, 5 and 9, at maximal effective dose
[14] = Example 18, L1210/0, 25 mg/kg, days 1,5,9
[15] = Example 18, L1210/0, 50 mg/kg, days 1,5,9

Compound: NC1CCCCC1N.O=C([O-])CN(CC(=O)[O-])Cc1ccccc1.[Pt+2] [Compound 38, N--Benzyliminodiacetato(DACH)Pt(II)]
- ID50 [1]: 2.3 µg/mL
- ID50 L1210/0 [1, 10]: 1.0 µg/mL
- ID50 L1210/DDP [2]: 0.8 µg/mL
- Maximal Effective Dose ([3]; Table IX): 25 mg/kg
- % T/C [3, 11]: 170%
- % T/C ([3]; single i.p., 12.5 mg/kg): 123%
- % T/C ([3]; single i.p., 25 mg/kg): 170%
- % T/C ([3]; single i.p., 50 mg/kg): 158%
- % T/C ([4]; 6.25 mg/kg i.p., days 1, 5, 9, 30 day observation period): 277%
- % T/C ([4]; 12.5 mg/kg i.p., days 1, 5, 9, 30 day observation period): 287%
- LTS ([4]; 12.5 mg/kg, days 1, 5, 9): 1/6
- % T/C ([4]; 25 mg/kg i.p., days 1, 5, 9, 30 day observation period): 240%
- LTS ([4]; 25 mg/kg, days 1, 5, 9): 2/6
- Long Term Survivors [4, 12]: 2/6
- Maximal Effective Dose ([4]; Tables X and XI): 12.5 mg/kg
- % T/C [4, 13]: 397%
- Maximal Effective Dose [5]: 12.5 mg/kg
- % T/C [5]: 207%
- Long Term Survivors [5]: 1/6
- LD10 [6]: 81 mg/kg
- LD50 [6]: 140 mg/kg
- LD90 [6]: 210 mg/kg
- RUN [7]: 27 ± 3 mg/100 ml

Compound: NC1CCCCC1N.O.O.O=C([O-])CN(CCO)CC(=O)[O-].[Pt+2] [Compound 39, N--(2-Hydroxyethyl)-iminodiacetato(DACH)Pt(II).2H2 O]
- ID50 [1]: 3.0 µg/mL
- ID50 L1210/0 [1, 10]: 0.7 µg/mL
- ID50 L1210/DDP [2]: 0.9 µg/mL
- Maximal Effective Dose ([3]; Table IX): 25 mg/kg
- % T/C [3, 11]: 180%
- Long Term Survivors [4, 12]: 4/6
- Maximal Effective Dose ([4]; Tables X and XI): 25 mg/kg
- % T/C [4, 13]: 450%
- Maximal Effective Dose [5]: 25 mg/kg
- % T/C [5]: 196%
- Long Term Survivors [5]: 2/6
- LD10 [6]: 63 mg/kg
- LD50 [6]: 150 mg/kg
- LD90 [6]: 301 mg/kg
- RUN [7]: 18 ± 2 mg/100 ml

Compound: N.N.[Cl][Pt][Cl] [DDP, diamminedichloroplatinum II, reference compound]
- ID50 L1210/0 ([1]; L1210/0, Example 15 table): 0.1 µg/mL
- ID50 L1210/PDD [2]: 5.5 µg/mL
- Maximal Effective Dose ([3]; Table IX): 9 mg/kg
- % T/C [3, 11]: 150%
- Long Term Survivors [4, 12]: 1/6
- Maximal Effective Dose ([4]; Tables X and XI): 5 mg/kg
- % T/C [4, 13]: 210% and 220%
- Maximal Effective Dose [5]: 5 mg/kg
- % T/C [5]: 172%
- Long Term Survivors [5]: 1/6

Compound: O.O.O=C([O-])C[N-]CC(=O)O.[NH-]C1CCCCC1[NH-].[Pt] [Compound 11, iminodiacetato(DACH)Pt(II).2H2 O]
- ID50 [1]: 4.2 µg/mL
- ID50 L1210/PDD [2]: 1.6 µg/mL
- Maximal Effective Dose ([3]; Table IX): 50 mg/kg
- % T/C [3, 11]: 163%
- % T/C ([3]; single i.p., 50 mg/kg): 163%
- % T/C ([3]; single i.p., 100 mg/kg): 109%
- toxicity remark ([3]; single i.p., 100 mg/kg): Apparent Toxicity
- % T/C ([4]; 25 mg/kg, days 1,5,9): 199%
- % T/C ([4]; 50 mg/kg, days 1,5,9): 220%
- Long Term Survivors ([4]; 50 mg/kg, days 1,5,9): 2/6
- Long Term Survivors [4, 12]: 2/6
- Maximal Effective Dose ([4]; Tables X and XI): 50 mg/kg
- % T/C [4, 13]: 220%
- DEATHS/TREATED ([8]; 85 mg/kg): 1/6
- DEATHS/TREATED ([8]; 100 mg/kg): 3/6
- DEATHS/TREATED ([8]; 125 mg/kg): 5/6
- DEATHS/TREATED ([8]; 158 mg/kg): 4/6
- DEATHS/TREATED ([8]; 200 mg/kg): 6/6
- Calculated LD10 [8]: 80 mg/kg
- Calculated LD50 [8]: 115 mg/kg
- Calculated LD90 [8]: 155 mg/kg
- LD10 [6]: 53 mg/kg
- LD50 [6]: 107 mg/kg
- LD90 [6]: 169 mg/kg
- RUN [7]: 23 ± 4 mg/100 ml

Compound: N[C@@H]1CCCC[C@H]1N.O=C([O-])CN(CCO)CC(=O)[O-].[Pt+2] [Identifier No. 12a, mono-N--hydroxyethyliminodiacetato]
- ID50 L1210/0 [1, 10]: 1.4 µg/mL
- ID50 L1210/DDP [2]: 1.8 µg/mL
- Long Term Survivors [4, 12]: 2/6
- Maximal Effective Dose ([4]; Tables X and XI): 6.25 mg/kg
- % T/C [4, 13]: 384%
- Maximal Effective Dose [5]: 25 mg/kg
- % T/C [5]: 265%
- Long Term Survivors [5]: 4/6

Compound: NC1CCCCC1N.O.O=C1OC(C(O)CO)C([O-])=C1O.O=C1OC(C(O)CO)C([O-])=C1O.[Pt+2] (stereo not drawn) [Compound 3, cis-bis-ascorbato(DACH)Pt(II).1H2 O]
- ID50 [1]: 5.0 µg/mL
- ID50 L1210/DDP [2]: 5.0 µg/mL
- ID50 L1210/PDD [2]: 2.6 µg/mL
- % T/C ([3]; single i.p., 50 mg/kg): 125%
- % T/C ([3]; single i.p., 60 mg/kg): 163%
- % T/C ([3]; single i.p., 75 mg/kg): 143%
- % T/C ([3]; single i.p., 90 mg/kg): 145%
- % T/C ([3]; single i.p., 100 mg/kg): Toxic
- % T/C ([4]; 5 mg/kg, days 1-9): 142%
- % T/C ([4]; 10 mg/kg, days 1,5,9): 123%
- % T/C ([4]; 10 mg/kg, days 1-9): 184%
- % T/C ([4]; 20 mg/kg, days 1,5,9): 196%
- Long Term Survivors ([4]; 20 mg/kg, days 1,5,9): 1/6
- % T/C ([4]; 20 mg/kg, days 1-9): 239%
- Long Term Survivors ([4]; 20 mg/kg, days 1-9): 1/6
- % T/C ([4]; 25 mg/kg, days 1,5,9): 176%
- % T/C ([4]; 30 mg/kg, days 1,5,9): 257%
- Long Term Survivors ([4]; 30 mg/kg, days 1,5,9): 1/6
- % T/C ([4]; 30 mg/kg, days 1,5,9,13): 273%
- Long Term Survivors ([4]; 30 mg/kg, days 1,5,9,13): 1/6
- % T/C ([4]; Example 18, L1210/0, 6.25 mg/kg, days 1,5,9): 117%
- % T/C ([4]; Example 18, L1210/0, 12.5 mg/kg, days 1,5,9): 135%
- % T/C [4, 14]: 181%
- SURVIVORS [4, 14]: 2/10
- % T/C [4, 15]: 247%
- SURVIVORS [4, 15]: 1/10
- % T/C ([4]; Example 18, L1210/0, 100 mg/kg, days 1,5,9): 104%
- % T/C ([9]; 6.25 mg/kg): 115%
- % T/C ([9]; 12.5 mg/kg): 124%
- % T/C ([9]; 25 mg/kg): 135%
- % T/C ([9]; 50 mg/kg): 223%
- SURVIVORS ([9]; 50 mg/kg): 3/10
- % T/C ([9]; 100 mg/kg): 172%
- DEATHS/TREATED ([8]; 110 mg/kg): 1/6
- DEATHS/TREATED ([8]; 125 mg/kg): 2/6
- DEATHS/TREATED ([8]; 140 mg/kg): 4/6
- DEATHS/TREATED ([8]; 175 mg/kg): 6/6
- Calculated LD10 [8]: 108 mg/kg
- Calculated LD50 [8]: 125 mg/kg
- Calculated LD90 [8]: 150 mg/kg
